“Also recorded” adds a separate entry of the source.
Key:
[1] = test system: 179-nucleotide receptor domain (179 lysC) of the lysC lysine riboswitch; assay: In-line probing assay, ligand binding to 179 lysC; parameters: species or system B. subtilis; conditions: for binding to 179 lysC / lysine aptamer (in words): in vitro
[2] = test system: B. subtilis 168 strain 1A1 (WT); assay: Sporulation assay, WT strain; conditions: for % Viable spore formation, WT: spores after heat shock relative to CFU before heat shock
[3] = test system: B. subtilis 168 (1A1); assay: Antibacterial activity assay (growth curves, MIC) in chemically defined minimal media; type: cell-based; conditions: for bacterial growth in minimal medium: 100 μM compound, chemically-defined minimal medium; for complete inhibition of bacterial growth for 24 h: minimal medium
[4] = test system: B. subtilis M2 strain; assay: Sporulation assay, M2 strain; conditions: 2 mM analog; spores after heat shock relative to CFU before heat shock
[5] = test system: lysC lysine riboswitch upstream of lacZ reporter gene; assay: In vivo reporter gene (β-galactosidase) expression assay, wild-type lysC riboswitch; type: cell-based, B. subtilis; conditions: for repression of β-galactosidase reporter gene expression controlled by lysC riboswitch: 3 h growth in presence of compound (5 mM, FIG. 3c); for reporter gene expression at the compound's MIC: at respective MICs
[6] = test system: resistant B. subtilis strains (M1, M2); assay: MIC toward L-4-oxalysine-resistant strains (M1, M2); type: cell-based; conditions: for effect of M1 and M2 mutations on susceptibility: M1 and M2 strains
[7] = test system: lysC riboswitch with the M1 or M2 mutation upstream of β-galactosidase reporter; assay: Reporter gene (β-galactosidase) expression assay, M1 or M2 riboswitch constructs; type: cell-based, B. subtilis; conditions: high compound concentrations (lysine as high as 5 mM)
[8] = test system: lysC lysine riboswitch upstream of lacZ reporter gene; conditions: Sudarsan 2006; cited from earlier work
[9] = test system: 179-nucleotide receptor domain (179 lysC) of the lysC lysine riboswitch; conditions: Sudarsan 2006; cited from earlier work
[10] = test system: B. subtilis lysine auxotroph strain 1A40; type: cell-based; conditions: 1 mM compound, 3 h, minimal media
[11] = test system: B. cereus; type: cell-based, Bacillus cereus; conditions: minimal medium

CC(=O)N[C@@H](CCCCN)C(=O)O [Compound 5, L-N^2-acetyllysine]
binding to 179 lysC / lysine aptamer (in words) [1]: does not tolerate modifications at N2

Nc1cc(C[C@H](N)C(=O)O)ccc1O [Compound 9, L-3-aminotyrosine]
formation of viable spores (in words) [2]: do not | % Viable spore formation, WT ([2]; 2 mM analog): 75% | bacterial growth in minimal medium [3]: modest level of growth inhibition activity | % Viable spore formation, M2 [4]: 75% | binding to 179 lysC / lysine aptamer (in words) [1]: poor affinities; also recorded: rejected by the lysine aptamer | repression of β-galactosidase reporter gene expression controlled by lysC riboswitch [5]: do not repress expression

C[N+](C)(C)CCCC[C@H](N)C(=O)O [Compound 12, L-N^6-trimethyllysine]
binding to 179 lysC / lysine aptamer (in words) [1]: no binding is observed

NCCOC[C@H](N)C(=O)O [Compound 2, L-4-oxalysine]
increase of MIC in resistant colonies ([6]; 24 colonies isolated by serial passage, versus wild type): at least 9 fold | formation of viable spores (in words) [2]: inhibit the formation of viable spores | % Viable spore formation, WT ([2]; 0.2 mM analog): 71% | % Viable spore formation, WT ([2]; 2 mM analog): 6% | complete inhibition of bacterial growth for 24 h [3]: completely inhibit bacterial growth | % Viable spore formation, M2 [4]: 65% | binding to 179 lysC / lysine aptamer (in words) [1]: bind well | β-galactosidase expression from M1 or M2 constructs [7]: fully active β-galactosidase is still expressed | repression of β-galactosidase reporter gene expression controlled by lysC riboswitch [5]: significantly repress | reporter gene expression at the compound's MIC [5]: completely repress

NCCSC[C@H](N)C(=O)O [AEC, L-aminoethylcysteine]
repression of lysC-regulated reporter gene (previous report) [8]: represses the expression | binding to the lysC riboswitch (previous report) [9]: bind well; also recorded: binds to the lysC riboswitch

NCC(O)CC[C@H](N)C(=O)O (stereo partly shown) [5-hydroxylysine]
binding to the lysC riboswitch (previous report) [9]: fails to bind

CN[C@@H](CCCCN)C(=O)O [Compound 11, L-N^2-methyllysine]
binding to 179 lysC / lysine aptamer (in words) [1]: does not tolerate modifications at N2

NCCCC[C@H](N)C(=O)O [lysine, L-lysine]
growth of lysine auxotroph strain 1A40 [10]: support growth | Kd [1]: 0.36 µM | repression of β-galactosidase reporter gene expression controlled by lysC riboswitch [5]: strongly repressed

Nc1ccccc1C(=O)C[C@H](N)C(=O)O [Compound 10, L-2-amino-3-(2-aminobenzoyl)-propionic acid]
binding to 179 lysC / lysine aptamer (in words) [1]: poor affinities

CC(=N)NCCCC[C@H](N)C(=O)O [Compound 7, L-N^6-1-iminoethyllysine]
bacterial growth in minimal medium [3]: fails to inhibit cell growth | binding to 179 lysC / lysine aptamer (in words) [1]: strong binding | repression of β-galactosidase reporter gene expression controlled by lysC riboswitch [5]: does not repress

NCC(=O)CCC(N)C(=O)O (racemic) [Compound 8, DL-5-oxolysine]
formation of viable spores (in words) [2]: do not | % Viable spore formation, WT ([2]; 2 mM analog): 47% | bacterial growth in minimal medium [3]: modest level of growth inhibition activity | % Viable spore formation, M2 [4]: 9% | binding to 179 lysC / lysine aptamer (in words) [1]: poor affinity; also recorded: rejected by the lysine aptamer | repression of β-galactosidase reporter gene expression controlled by lysC riboswitch [5]: do not repress expression

NC/C=C/CC(N)C(=O)O (racemic) [Compound 4, DL-trans-2,6-diamino-4-hexenoic acid]
effect of M1 and M2 mutations on susceptibility [6]: confer resistance | complete inhibition of bacterial growth for 24 h [3]: completely inhibit bacterial growth | binding to 179 lysC / lysine aptamer (in words) [1]: bind well | repression of β-galactosidase reporter gene expression controlled by lysC riboswitch [5]: significantly repress

NCCS(=O)(=O)C[C@H](N)C(=O)O [Compound 1, L-3-[(2-aminoethyl)-sulfonyl]-alanine]
growth inhibition of B. cereus relative to B. subtilis [11]: 13 fold | effect of M1 and M2 mutations on susceptibility [6]: confer resistance | formation of viable spores (in words) [2]: inhibit the formation of viable spores | % Viable spore formation, WT ([2]; 0.2 mM analog): 7% | % Viable spore formation, WT ([2]; 2 mM analog): 0% | complete inhibition of bacterial growth for 24 h [3]: completely inhibit bacterial growth | % Viable spore formation, M2 [4]: 17% | binding to 179 lysC / lysine aptamer (in words) [1]: bind well | β-galactosidase expression from M1 or M2 constructs [7]: fully active β-galactosidase is still expressed | repression of β-galactosidase reporter gene expression controlled by lysC riboswitch [5]: significantly repress | reporter gene expression at the compound's MIC [5]: completely repress

N=C(N)NCCCC[C@H](N)C(=O)O [Compound 3, L-homoarginine]
growth of lysine auxotroph strain 1A40 [10]: supports the growth; also recorded: support growth | binding to 179 lysC / lysine aptamer (in words) [1]: binds strongly

From US20100137440A1, “LYSINE RIBOSWITCHES, STRUCTURE-BASED COMPOUND DESIGN WITH LYSINE RIBOSWITCHES, AND METHODS AND COMPOSITIONS FOR USE OF AND WITH LYSINE RIBOSWITCHES” (Yale University, priority 2006, published 2010)
